# According to the supplement of paper PMC13380429:
# Assays:
# Conditions in all cases: 72 h
# [1] = tested on: HepG2; assay: drug sensitivity score (DSS) for viability; higher = more toxic; extreme values may be limits of the assay
# [2] = tested on: Caco-2; assay: as above
# [3] = tested on: U2OS; assay: as above
# [4] = tested on: Calu-3; assay: as above
# [5] = tested on: Vero E6; assay: as above
# [6] = tested on: HepG2; assay: cell viability relative to DMSO; higher = less toxic
# [7] = tested on: Caco-2; assay: as above
# [8] = tested on: U2OS; assay: as above
# [9] = tested on: Calu-3; assay: as above
# [10] = tested on: Vero E6; assay: as above
# [11] = tested on: HepG2; assay: relative viability EC50 (midpoint between 100% and the lowest measured viability); higher = less toxic
# [12] = tested on: Caco-2; assay: as above
# [13] = tested on: U2OS; assay: as above
# [14] = tested on: Calu-3; assay: as above
# [15] = tested on: Vero E6; assay: as above
Structure (SMILES),drug sensitivity score [1],drug sensitivity score [2],drug sensitivity score [3],drug sensitivity score [4],drug sensitivity score [5],cell viability ([6]; 1 nM),cell viability ([6]; 10 nM),cell viability ([6]; 100 nM),cell viability ([6]; 1000 nM),cell viability ([6]; 10000 nM),cell viability ([7]; 1 nM),cell viability ([7]; 10 nM),cell viability ([7]; 100 nM),cell viability ([7]; 1000 nM),cell viability ([7]; 10000 nM),cell viability ([8]; 1 nM),cell viability ([8]; 10 nM),cell viability ([8]; 100 nM),cell viability ([8]; 1000 nM),cell viability ([8]; 10000 nM),cell viability ([9]; 1 nM),cell viability ([9]; 10 nM),cell viability ([9]; 100 nM),cell viability ([9]; 1000 nM),cell viability ([9]; 10000 nM),cell viability ([10]; 1 nM),cell viability ([10]; 10 nM),cell viability ([10]; 100 nM),cell viability ([10]; 1000 nM),cell viability ([10]; 10000 nM),relative viability EC50 [11],relative viability EC50 [12],relative viability EC50 [13],relative viability EC50 [14],relative viability EC50 [15]
COC(=O)c1cc(OC)c2c(c1-c1c(C(=O)OC)cc(OC)c3c1OCO3)OCO2 [bifendate],0,0,0,0,0,94.8%,84%,93.2%,93.8%,90.4%,112%,104%,98.4%,102%,89.6%,99.3%,99.3%,97.6%,99.5%,101%,94.4%,98.1%,101%,106%,104%,105%,105%,105%,94.6%,107%,> 10 µM,> 10 µM,> 10 µM,> 10 µM,> 10 µM
CCNC(=O)CCC/C=C\C[C@@H]1[C@@H](/C=C/[C@@H](O)CCc2ccccc2)[C@H](O)C[C@@H]1O [bimatoprost],0,0,0,0,0,88.6%,93%,95.1%,107%,105%,97.5%,89.8%,106%,92.2%,101%,102%,93.3%,103%,96.4%,107%,113%,97.6%,101%,100%,101%,97.7%,105%,96.1%,100%,106%,> 10 µM,> 10 µM,> 10 µM,> 10 µM,> 10 µM
CCN[C@H]1CN(CCCOC)S(=O)(=O)c2sc(S(N)(=O)=O)cc21 [brinzolamide],0,0,0,0,0,100%,118%,101%,110%,112%,89.1%,95.2%,99.3%,104%,106%,96.6%,95.4%,102%,106%,99.9%,96.2%,91.8%,101%,112%,102%,94.4%,99.7%,96.2%,85.9%,102%,> 10 µM,> 10 µM,> 10 µM,> 10 µM,> 10 µM
C=CCN1C[C@H](C(=O)N(CCCN(C)C)C(=O)NCC)C[C@@H]2c3cccc4[nH]cc(c34)C[C@H]21 [cabergoline],0,4,0,0,0,89.3%,95.2%,106%,92.8%,90.7%,108%,95.2%,83%,89%,89.5%,101%,100%,96.5%,101%,103%,106%,99.7%,97.1%,107%,99.4%,103%,98%,88.9%,96.1%,95.7%,> 10 µM,> 10 µM,> 10 µM,> 10 µM,> 10 µM
C=C1CC[C@H](O)C/C1=C/C=C1\CCC[C@]2(C)[C@@H]([C@H](C)CCCC(C)(C)O)CC[C@@H]12 [calcifediol],0,0,0,0,0,92.6%,103%,97.1%,103%,101%,107%,90.2%,107%,92.3%,91.8%,106%,97.5%,105%,98.1%,95%,98.2%,91.4%,78.8%,103%,107%,98.9%,95%,98.1%,97.3%,97%,> 10 µM,> 10 µM,> 10 µM,> 10 µM,> 10 µM
CO/N=C(\C(=O)N[C@@H]1C(=O)N2C(C(=O)OCOC(=O)C(C)(C)C)=C(/C=C\c3scnc3C)CS[C@H]12)c1csc(N)n1 [cefditoren-pivoxil],0.2,0,0,0,0,91%,99.7%,97.3%,103%,84.2%,104%,97.5%,105%,99.1%,90.9%,103%,108%,103%,96.6%,100%,96.9%,105%,86.3%,101%,106%,94.7%,98.9%,94.2%,92.7%,91.9%,> 10 µM,> 10 µM,> 10 µM,> 10 µM,> 10 µM
CO[C@@]1(NC(=O)C2SC(=C(C(N)=O)C(=O)O)S2)C(=O)N2C(C(=O)O)=C(CSc3nnnn3C)CS[C@@H]21 (stereo not given in full) [cefotetan],0,0,0,0,0,108%,89.7%,99.1%,100%,103%,92.4%,95.3%,93.6%,95.9%,101%,98.3%,99.6%,98.5%,99.8%,96.1%,109%,94.1%,108%,105%,103%,105%,104%,103%,98.2%,99.9%,> 10 µM,> 10 µM,> 10 µM,> 10 µM,> 10 µM
CC(=O)OCC1=C(C(=O)O)N2C(=O)[C@@H](NC(=O)CSc3ccncc3)[C@H]2SC1 [cephapirin],0,0,0,0,0,104%,91.1%,102%,93.3%,103%,93.9%,109%,94.8%,97.6%,96.1%,96.6%,99.6%,93.8%,94.6%,104%,98.9%,92.3%,90.9%,101%,97.7%,95.6%,98%,95.6%,97.1%,102%,> 10 µM,> 10 µM,> 10 µM,> 10 µM,> 10 µM
Cc1nc(C)c(C)nc1C [chuanxiongzine],0,0,0,0.2,0,105%,88.9%,97.1%,92%,97.3%,110%,105%,95.7%,112%,105%,98.5%,102%,98.6%,101%,95.7%,105%,106%,89.9%,101%,84.8%,104%,97.1%,104%,104%,105%,> 10 µM,> 10 µM,> 10 µM,> 10 µM,> 10 µM
O=C1CCc2cc(OCCCCc3nnnn3C3CCCCC3)ccc2N1 [cilostazol],0,0,0,0,0,114%,99.9%,110%,99.4%,92.6%,97.5%,104%,99.7%,101%,90.3%,93.2%,96.9%,94%,96.5%,95%,94.3%,107%,99.1%,115%,111%,91.5%,99%,96.9%,101%,95.7%,> 10 µM,> 10 µM,> 10 µM,> 10 µM,> 10 µM
CCC(CC)(CC(=O)Nc1cccc(/C=C/c2nc(C3CCC3)cs2)c1)C(=O)O [cinalukast],0,0,0,0,0,97.4%,108%,106%,91.9%,95.7%,99.2%,97.1%,102%,96.9%,90.7%,102%,96.7%,107%,99.4%,103%,98.9%,89.9%,88.1%,88.4%,101%,101%,109%,101%,98.2%,96.6%,> 10 µM,> 10 µM,> 10 µM,> 10 µM,> 10 µM
CN(C)CCCSc1ccccc1NC(=O)/C=C/c1ccccc1 [cinanserin],0.1,0,0,0,0,94.3%,94.1%,101%,102%,85.8%,92.4%,95%,94.4%,97.3%,102%,108%,99.6%,98.5%,97.2%,97.6%,108%,98.6%,98.1%,90.7%,98.9%,99.4%,99.9%,97%,101%,87.9%,> 10 µM,> 10 µM,> 10 µM,> 10 µM,> 10 µM
COc1cc(/C=C/C(=O)N2CCN(CC(=O)N3CCCC3)CC2)cc(OC)c1OC [cinepazide],0,0,0,0,0,101%,96.9%,90.8%,98.2%,96.1%,96.4%,105%,94.9%,103%,91.3%,92.6%,97.5%,92.1%,100%,95.6%,104%,96%,95.8%,94%,101%,98.5%,98.1%,102%,100%,98.6%,> 10 µM,> 10 µM,> 10 µM,> 10 µM,> 10 µM
CC(C)(Oc1ccc(Cl)cc1)C(=O)O [clofibric-acid],0,0,0,0,0,93.7%,106%,95.6%,105%,96.2%,95.5%,96.6%,101%,99.3%,99.1%,101%,95.1%,99.9%,94.9%,99.2%,94.2%,96.5%,100%,92.5%,96.2%,102%,101%,97.7%,93.3%,94.2%,> 10 µM,> 10 µM,> 10 µM,> 10 µM,> 10 µM
